Laboratory results: US12410124B2 (priority 2019, dated 2025)

Assays:
Format in all cases: in vivo
GCLC = assay: Midbrain GCLC expression in MPTP Parkinson's disease model mouse (western blot); conditions: for Expression (GCLC/GAPDH): midbrain, MPTP Parkinson's disease model mouse, western blot
Protocol: (§1) Neurotoxins can be used to establish PD animal models. Currently, 1-methyl-4-phenyl-1,2,3,6-tetrahydropyridine (MPTP) is the sole synthetic toxin which is recognized to induce PD symptoms in human and non-human primates and in mice. Using MPTP subacute modeling method, C57BL/6J male mice were intraperitoneally injected with MPTP 30 mg/kg, once a day for 5 consecutive days. The experiment animals were divided into blank control group, MPTP model group, and compound treatment group. For the […] compound treatment group, the compound was administrated by gavage for 21 consecutive days after the completion of modeling; for the MPTP model group, the normal saline was administrated by gavage for 21 consecutive days after the completion of modeling; and for the blank control group, the normal saline was first intraperitoneally injected for 5 days, and then administrated by gavage for 21 days.
(§2) Oxidative stress is an important pathogenic mechanism of PD. Dopaminergic neurons are more sensitive to oxidative stress and are more susceptible to oxidative stress damage. Glutathione (GSH) is an important antioxidant substance in the cell, and glutamate cysteine ligase (GCL) is the rate-limiting enzyme for GSH synthesis, which is composed of catalytic subunit (GCLC) and regulatory subunit (GCLM). The increase of GCLC expression can promote the synthesis of GSH and enhance the ability of tissue cells against oxidative stress. GCL, a phase II enzyme, plays an important protective role by catalyzing the conversion of free radicals into non-toxic products and increasing their water solubility to facilitate the elimination of free radicals, and maintain the redox balance in the body. It plays an important role in the process of protecting cells against oxidative stress damage. The activation of p38 protein phosphorylation has a negative regulatory effect on phase II enzymes. […] Using GCLC as an indicator, the inhibitory effect of the target compounds on MPTP-induced oxidative stress damage in PD mice can be investigated.
(§3) GCLC is expressed in astrocytes, microglial cells, and neurons. The total proteins of the midbrain tissue of mice in each experiment group were extracted, to determine the expression of phase II enzyme GCLC in the midbrain of mice by western blot using GAPDH as the internal reference. The experiment included blank control group, MPTP model group, positive control group (caffeic acid phenethyl ester, CAPE), prototype control group (styryl sulfone compounds 3B, 3C, 3D), and 3G, whose structures are shown as above), and target compound group.

substantia nigra GFAP = assay: Number of substantia nigra astrocytes with GFAP positive expression in MPTP Parkinson's disease model mouse (immunohistochemistry); conditions: for Positive cell number (astrocytes with GFAP positive expression): substantia nigra, MPTP Parkinson's disease model mouse, immunohistochemistry
Protocol: as §1
Neuron-glial cell network homeostasis disorder is an important factor for the selective and progressive death of substantia nigra dopaminergic neurons in PD. In the neurotoxic effect of MPTP, the excessive activations of microglial cells and astrocytes produce a variety of inflammatory cytokines and reactive oxygen species (ROS). These inflammatory factors and ROS amplify their respective toxicities and mediate malignant feedback loop, causing a cascade inflammation response and aggravating the pathological process of PD. CD11b and GFAP are the marker proteins for activations of microglial cells and astrocytes, respectively. Therefore, the effect of the target compounds on the activations of the microglial cells and astrocytes in the substantia nigra, hippocampus, and midbrain areas of MPTP-induced PD mice can be investigated, to explore the mechanism of the anti-PD effect of the target compounds by inhibiting the neuroinflammation.
Half of experiment mice in each group were taken to separate the midbrain after perfusion and fixation. The tissue was trimmed, and the substantia nigra area was taken to prepare paraffin sections. The GFAP immunohistochemical staining was performed for the statistics of the change in the number of astrocytes with GFAP positive expression. The experiment included blank control group, MPTP model group, positive control group (caffeic acid phenethyl ester, CAPE), prototype control group (styryl sulfone compounds 3B, 3C, 3D, and 3G, whose structures are shown as above), and target compound group.

midbrain p-α-s = assay: Midbrain p-α-s protein expression in MPTP Parkinson's disease model mouse (western-blotting); conditions: midbrain total protein, GAPDH internal reference, gavage 21 consecutive days after MPTP modeling
Protocol: as §1
Alpha-synuclein is an “unfolded protein” in its natural state. It exists in a monomeric form, and participates in the physiological functions such as the release of neurotransmitters, the establishment of synaptic junctions, and the regulation of synaptic plasticity. Under pathological conditions, more than 90% of alpha-synuclein is phosphorylated at serine of position 129 and converted into phosphorylated alpha-synuclein (p-α-s), thereby forming Lewy bodies. The formation of Lewy bodies is one of the main pathological manifestations and pathological mechanisms for Parkinson's disease, and plays an important role in the formation and development of PD. The detection of the p-α-s expression in the midbrain and substantia nigra of PD model mice can evaluate the neuroprotective activity of the compound.
Half of experiment mice in each group were taken to extract the total midbrain protein, and the change in the midbrain P-α-s protein expression was determined by western-blotting using GAPDH as the internal reference. The experiment included blank control group, MPTP model group, positive control group (caffeic acid phenethyl ester, CAPE), prototype control group (styryl sulfone compounds 3B, 3C, 3D, and 3G, whose structures are shown as above), and target compound group.

HO-1 = assay: Midbrain HO-1 expression in MPTP Parkinson's disease model mouse (western blot); conditions: for Expression (HO-1/GAPDH): midbrain, MPTP Parkinson's disease model mouse, western blot
Protocol: as §1
as §2, with “Heme oxygenase (HO-1),” for “Glutathione (GSH) is an important antioxidant substance in the cell, and glutamate cysteine ligase (GCL) is the rate-limiting enzyme for GSH synthesis, which is composed of catalytic subunit (GCLC) and regulatory subunit (GCLM). The increase of GCLC expression can promote the synthesis of GSH and enhance the ability of tissue cells against oxidative stress. GCL,”, “enzyme, is also a well-known antioxidase. It” for “enzyme,”, “HO-1” for “GCLC”
as §3, with “HO-1” for “GCLC”, “3D,” for “3D),”

Compound	midbrain GCLC expression compared with the styryl sulfone prototype compounds (GCLC)	Expression (GCLC/GAPDH) (GCLC)	number of substantia nigra astrocytes with GFAP positive expression compared with the styryl sulfone prototype compounds (substantia nigra GFAP)	Positive cell number (astrocytes with GFAP positive expression) (substantia nigra GFAP)	Expression (p-α-s/GAPDH) (midbrain p-α-s)	midbrain HO-1 expression compared with the styryl sulfone prototype compounds (HO-1)	Expression (HO-1/GAPDH) (HO-1)
CCN(CC)C(=O)Oc1ccc(/C=C/S(=O)(=O)Cc2ccc(C(F)(F)F)cc2)cc1OC(=O)N(CC)CC [Compound B1-1, (E)-4-{2-[(4-trifluoromethylphenyl)mesyl]ethenyl}-1,2-phenylenebis(diethylcarbamate)]	significantly higher	1.17 ± 0.06	significantly lower	88 ± 5	0.23 ± 0.12	significantly higher	0.90 ± 0.10
CCN(CC)C(=O)Oc1ccc(/C=C/S(=O)(=O)Cc2ccc(C(C)(C)C)cc2)cc1OC(=O)N(CC)CC [Compound G1-1, (E)-4-{2-[(4-t-butylphenyl)mesyl]ethenyl}-1,2-phenylenebis(diethylcarbamate)]	significantly higher	1.05 ± 0.04	significantly lower	76 ± 4	0.34 ± 0.09	significantly higher	1.35 ± 0.10
CCN(CC)C(=O)Oc1ccc(/C=C/S(=O)(=O)CCCc2ccccc2)cc1OC(=O)N(CC)CC [Compound C1-1, (E)-4-[2-(3-phenylpropylsulfonyl)ethenyl]-1,2-phenylenebis(diethylcarbamate)]	significantly higher	1.34 ± 0.08	significantly lower	56 ± 4	0.63 ± 0.06	significantly higher	0.88 ± 0.09
CC(Br)C(Br)COc1cc(/C=C/S(=O)(=O)CCc2ccc(OCC(F)(F)F)cc2)ccc1OC(=O)Nc1ccsc1 (centres unmarked) [Compound K1-3, (E)-2-(2,3-dibromobutoxy)-4-{2-[4-(2,2,2-trifluoroethoxy)phenylethylsulfonyl]ethenyl}phenyl-N-(thien-3-yl)carbamate]		1.13 ± 0.08		86 ± 5	0.34 ± 0.10		0.83 ± 0.08
CCN(CC)C(=O)Oc1ccc(/C=C/S(=O)(=O)Cc2ccc(Cl)cc2)cc1OC(=O)N(CC)CC [Compound D1-1, (E)-4-{2-[(4-chlorophenyl)mesyl]ethenyl}-1,2-phenylenebis(diethylcarbamate)]	significantly higher	1.29 ± 0.05	significantly lower	64 ± 3	0.42 ± 0.10	significantly higher	1.63 ± 0.12
Cc1ccc(S(=O)(=O)Oc2ccc(CS(=O)(=O)/C=C/c3ccc(OS(=O)(=O)c4ccc(C)cc4)c(OC(=O)N(C)S(=O)(=O)c4ccc(C)cc4)c3)cc2)cc1 [Compound S6-6, (E)-2-(N-methyl-N-p-tosylcarbamoyloxy)-4-{2-[(4-p-tosyloxyphenyl)mesyl]ethenyl}phenyl p-toluenesulfonate]		1.29 ± 0.08		78 ± 4	0.28 ± 0.06		1.08 ± 0.11
O=C(/C=C/c1ccc(O)c(O)c1)OCCc1ccccc1 [Positive control group, caffeic acid phenethyl ester, reference compound]		0.77 ± 0.06		132 ± 8	0.54 ± 0.12		0.52 ± 0.07
CC(=O)Oc1ccc(/C=C/S(=O)(=O)Cc2c(F)c(F)c(F)c(F)c2F)cc1OC(=O)NC(=O)c1ccc([N+](=O)[O-])c(C)c1 [Compound D5-4, (E)-2-[N-(3-methyl-4-nitrobenzoyl)carbamoyloxy]-4-{2-[(perfluorophenyl)mesyl]ethenyl}phenyl acetate]		0.97 ± 0.07		97 ± 5	0.64 ± 0.12		0.93 ± 0.10
CC(C)N(c1ccc(CCS(=O)(=O)/C=C/c2ccc(OC(=O)N(C)c3ccc(I)cc3)c(OCCOCc3ccccc3)c2)cc1)C(C)C [Compound A1-3, (E)-2-(2-benzyloxyethoxy)-4-{2-[4-(N,N-diisopropylamino)phenylethylsulfonyl]ethenyl}phenyl-N-(4-iodophenyl)-N-methylcarbamate]		0.84 ± 0.04		105 ± 6	0.56 ± 0.12		0.66 ± 0.05
Cc1ccc(N2CCN(C(=O)Oc3ccc(/C=C/S(=O)(=O)CCCC(c4ccc(OC(=O)CN(C)C)cc4)N(C)C)cc3OC(=O)N(C)c3ccccc3)CC2)cc1 (centres unmarked) [Compound P1-1, (E)-4-{2-[4-(dimethylamino)-4-(4-(N,N-dimethylglycyloxy)phenyl)butylsulfonyl]ethenyl}-2-(N-methyl-N-phenylcarbamoyloxy)phenyl-4-(p-methylphenyl)piperazine-1-carboxylate]		0.98 ± 0.06		73 ± 6	0.48 ± 0.12		1.17 ± 0.05
CNC(=O)Oc1ccc(/C=C/S(=O)(=O)CC(Cl)c2ccc(Cl)c([N+](=O)[O-])c2)cc1O (centres unmarked) [Compound E2-2, (E)-4-{2-[2-chloro-2-(4-chloro-3-nitrophenyl)ethylsulfonyl]ethenyl}-2-hydroxyphenyl-N-methylcarbamate]		1.48 ± 0.11		102 ± 5	0.45 ± 0.07		1.58 ± 0.08
